From patent US11560366B2, “Bicyclo[1.1.1]pentane inhibitors of dual leucine zipper (DLK) kinase for the treatment of disease” (Board of Regents, The University of Texas System, priority 2019, dated 2023)
Where two headings read alike, the source gives them in different places.

Legend:
human DLK = human DLK (Homo sapiens (Human), UniProt Q12852); assay: DLK Kd determination (KINOMEscan KdELECT, DiscoveRx); type: binding
Description: The DLK dissociation constants (Kd) have been determined in the KINOMEscan KdELECT Service at DiscoveRx.
A fusion protein of full length of human DLK (amino acids 1-859) and the DNA binding domain of NFkB was expressed in transiently transfected HEK293 cells. From these HEK 293 cells, extracts were prepared in M-PER extraction buffer (Pierce) in the presence of Protease Inhibitor Cocktail Complete (Roche) and Phosphatase Inhibitor Cocktail Set II (Merck) per manufacturers' instructions. The DLK fusion protein was labeled with a chimeric double-stranded DNA tag containing the NFkB binding site (5′-[sequence]-3′, SEQ ID NO:1) fused to an amplicon for qPCR readout, which was added directly to the expression extract (the final concentration of DNA-tag in the binding reaction is 0.1 nM).
The liganded beads were blocked with excess biotin and washed with blocking buffer (SeaBlock (Pierce), 1% BSA, 0.05% Tween 20, 1 mM DTT) to remove unbound ligand and to reduce nonspecific binding.
Extracts were used directly in binding assays without any enzyme purification steps at a >10,000-fold overall stock dilution (final DNA-tagged enzyme concentration <0.1 nM). Extracts were loaded with DNA-tag and diluted into the binding reaction in a two step process. First extracts were diluted 1:100 in 1× binding buffer (PBS/0.05% Tween 20/10 mM DTT/0.1% BSA/2 μg/ml sonicated salmon sperm DNA) containing 10 nM DNA-tag. This dilution was allowed to equilibrate at room temperature for 15 minutes and then subsequently diluted 1:100 in 1× binding buffer. Test compounds were prepared as 111× stocks in 100% DMSO. Kds were determined using an 11-point 3-fold compound dilution series with three DMSO control points. […] The compounds were then diluted directly into the assays such that the final concentration of DMSO was 0.9%. All reactions performed in polypropylene 384-well plates. Each was a final volume of 0.02 mL. Assays were incubated with shaking for 1 hour at room temperature. Then the beads were pelleted and washed with wash buffer (1×PBS, 0.05% Tween 20) to remove displaced kinase and test compound. […] The kinase concentration in the eluates was measured by qPCR. qPCR reactions were assembled by adding 2.5 μL of kinase eluate to 7.5 μL of qPCR master mix containing 0.15 μM amplicon primers and 0.15 μM amplicon probe.
Test compounds were prepared as 111× stocks in 100% DMSO. Kds were determined using an 11-point 3-fold compound dilution series with three DMSO control points. […] The compounds were then diluted directly into the assays such that the final concentration of DMSO was 0.9%. The Kds were determined using a compound top concentration of 30,000 nM. Kd measurements were performed in duplicate.
Binding constants (Kds) were calculated with a standard dose-response curve using the Hill equation:
The Hill Slope was set to −1.

[1] = Metabolic stability in liver microsomes, mouse; type: in vitro ADME, CD-1 mouse; conditions: CD-1, liver microsomes, 0.5 mg/mL microsomes, NADPH, 45 minutes, 37° C., read-out: Half-life in liver microsomes (t1/2, minutes)
Description: (§1) The test compound was incubated with liver microsomes (0.5 mg/mL) from CD-1 mouse, Sprague Dawley rat, Beagle dog, Cynomolgus monkey, and human in the presence of NADPH for 45 minutes at 37° C. The % parent remaining over time was determined by LC-MS/MS, using peak area ratios. Half-life (t1/2) was calculated using the following equation: t1/2=ln2/k, where k is the rate constant of parent decay over time (slope of the plot of log[% parent remaining] versus time).

[2] = Metabolic stability in liver microsomes, rat; type: in vitro ADME; conditions: Sprague Dawley, 0.5 mg/mL microsomes, NADPH, 45 minutes, 37° C., read-out: Half-life in liver microsomes (t1/2, minutes)
Description: as §1

[3] = Metabolic stability in liver microsomes, dog; type: in vitro ADME; conditions: Beagle, 0.5 mg/mL microsomes, NADPH, 45 minutes, 37° C., read-out: Half-life in liver microsomes (t1/2, minutes)
Description: as §1

[4] = Metabolic stability in liver microsomes, monkey; type: in vitro ADME, Cynomolgus monkey; conditions: 0.5 mg/mL microsomes, NADPH, 45 minutes, 37° C., read-out: Half-life in liver microsomes (t1/2, minutes)
Description: as §1

[5] = Metabolic stability in liver microsomes, human; type: in vitro ADME; conditions: 0.5 mg/mL microsomes, NADPH, 45 minutes, 37° C., read-out: Half-life in liver microsomes (t1/2, minutes)
Description: as §1

[6] = Mouse pharmacokinetics, single dose; type: in vivo, male C57BL/6 mice; conditions: for Kp / unbound brain-to-plasma ratio (Kp,uu): brain and plasma, po, 10 mg/kg, based on AUC; for Kp / unbound brain-to-plasma ratio (Kp,uu) / AUC(0-t) / Cmax / bioavailability: oral dose 10 mg/kg; for Kp: read-out: Brain/Plasma Ratio; for unbound brain-to-plasma ratio (Kp,uu): read-out: Free Brain/Plasma Ratio; for clearance / half-life / Vd: in vivo; for Vd: read-out: Vss; for AUC(0-t) / Cmax / bioavailability: plasma; for clearance in mice, comparison in words / half-life in mice, comparison in words: relative to comparator compounds 13 or 14b; for brain penetration, in words: relative to 13 and 14b and to 1a, 4b, 8a and 9b
[7] = Metabolic stability in liver microsome preparations, overall comparison; type: in vitro ADME; conditions: relative to comparator compounds 13 or 14/14b (WO2018207072)
Description: as §1

[8] = Rat pharmacokinetics, single dose; type: in vivo, Wistar Han rats; conditions: rat, in vivo, Wistar Han rats
Description: Pharmacokinetics for compounds 13, 1a, and 9b were determined using single dosage of Wistar Han rats using techniques that are well known in the art.

[9] = male, C57BL/6, mouse, male C57BL/6 mice
[10] = mouse, male C57BL/6 mice, IV dose 0.3 mg/kg (1a, 4b, 13, 14b, 16; IV dose of 8a, 9b not stated)
[11] = full length human DLK fusion protein, qPCR readout, duplicate, read-out: Kd
[12] = male, C57BL/6, mouse, iv, 1 mg/kg

human DLK, sequence (Q12852 whole entry): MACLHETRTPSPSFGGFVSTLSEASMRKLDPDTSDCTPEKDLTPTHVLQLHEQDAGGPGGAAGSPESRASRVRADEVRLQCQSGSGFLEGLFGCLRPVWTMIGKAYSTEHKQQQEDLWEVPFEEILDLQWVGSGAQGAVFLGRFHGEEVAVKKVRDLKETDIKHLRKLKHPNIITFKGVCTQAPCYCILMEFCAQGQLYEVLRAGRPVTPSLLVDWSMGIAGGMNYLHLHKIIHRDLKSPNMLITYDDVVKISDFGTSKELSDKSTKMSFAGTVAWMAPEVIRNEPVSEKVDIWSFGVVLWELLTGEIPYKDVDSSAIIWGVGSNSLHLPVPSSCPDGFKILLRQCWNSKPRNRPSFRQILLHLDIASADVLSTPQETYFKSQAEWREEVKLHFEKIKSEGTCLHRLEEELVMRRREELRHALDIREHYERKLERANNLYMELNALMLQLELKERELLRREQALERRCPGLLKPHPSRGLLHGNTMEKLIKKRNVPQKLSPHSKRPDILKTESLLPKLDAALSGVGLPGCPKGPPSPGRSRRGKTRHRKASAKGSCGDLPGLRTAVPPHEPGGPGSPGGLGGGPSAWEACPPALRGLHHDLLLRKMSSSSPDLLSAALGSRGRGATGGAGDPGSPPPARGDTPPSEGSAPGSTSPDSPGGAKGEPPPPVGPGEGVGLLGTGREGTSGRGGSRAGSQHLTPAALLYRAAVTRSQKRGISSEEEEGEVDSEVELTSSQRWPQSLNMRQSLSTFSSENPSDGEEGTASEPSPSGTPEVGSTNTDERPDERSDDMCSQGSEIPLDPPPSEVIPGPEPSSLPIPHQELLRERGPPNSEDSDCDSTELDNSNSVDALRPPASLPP

| Compound | Kd (human DLK; read-out: Kd) [pM] | half-life [1] [min] | half-life [2] [min] | half-life [5] [min] | Kp [6, 9] | unbound brain-to-plasma ratio (Kp,uu) [6, 9] | clearance [6, 10] [mL/min/kg] | half-life [6, 10] [h] | Vd [6, 10] [L/kg] | AUC(0-t) ([6]; mouse, male C57BL/6 mice) [µM·h] | Cmax ([6]; mouse, male C57BL/6 mice) [µM] | bioavailability ([6]; mouse, male C57BL/6 mice) [%] | also measured |
| --- | --- | --- | --- | --- | --- | --- | --- | --- | --- | --- | --- | --- | --- |
| CC(C)[C@H](O)c1nc(-c2cnc(N)c(OC(F)(F)F)c2)cn1C12CC(F)(C1)C2 (single isomer, unassigned) [Example 3b] | 240 |  |  |  |  |  |  |  |  |  |  |  |  |
| CC(C)[C@H](O)c1nc(-c2cnc(N)c(C(F)(F)F)c2)cn1C12CC(F)(C1)C2 (single isomer, unassigned) [Example 4b] | 290 | 71 | 30 | 213 | 1.72 | 1.06 | 24.5 | 1.86 | 3.3 | 8.67 | 5.42 | 49.2 | half-life [3]: 355 min; half-life [4]: 22 min; clearance in mice, comparison in words [6]: reduced clearance; half-life in mice, comparison in words [6]: longer half-life; microsomal stability, comparison in words [7]: improvements to microsomal stability |
| CC(C)[C@@H](O)c1nc(-c2cnc(N)c(C(F)(F)F)c2)cn1C12CC(N3CCC(F)(F)CC3)(C1)C2 (single isomer, unassigned) [Example 7a] | 210 |  | 566 | 70 |  |  |  |  |  |  |  |  |  |
| CC(C)[C@@H](O)c1nc(-c2cnc(N)c(OC(F)(F)F)c2)cn1C12CC(N3CCC(F)(F)CC3)(C1)C2 (single isomer, unassigned) [Example 8a] | 500 | 322 | 201 | 297 | 0.82 | 0.38 | 7 | 6.7 | 3.8 | 41.4 | 3.54 | 106 |  |
| Nc1ncc(-c2cn(C34CC(N5CCC(F)(F)CC5)(C3)C4)c([C@@H](O)C(F)(F)F)n2)cc1C(F)(F)F (single isomer, unassigned) [Example 10a] | 620 |  |  |  |  |  |  |  |  |  |  |  |  |
| Nc1ncc(-c2cn(C34CC(C3)C4)c([C@@H](O)C(F)(F)F)n2)cc1OC(F)(F)F [Compound 13, (R)-1-(4-(6-amino-5-(trifluoromethoxy)-pyridin-3-yl)-1-(bicyclo[1.1.1]pentan-1-yl)-1H-imidazol-2-yl)-2,2,2-trifluoroethan-1-ol, reference compound] |  | 221 | 77 | 121 | 2.97 | 1.54 | 14.1 | 3.53 | 4.6 | 14.4 | 1.95 | 51 | Kd (human DLK; [11]): 1600 pM; half-life [3]: 109 min; half-life [4]: 56 min; clearance ([8]; IV dose 1 mg/kg): 12.1 mL/min/kg; half-life ([8]; IV dose 1 mg/kg): 9.94 h; Vd ([8]; IV dose 1 mg/kg, read-out: Vss): 7.9 L/kg; AUC(0-t) ([8]; oral dose 3 mg/kg): 7.59 µM·h; Cmax ([8]; oral dose 3 mg/kg): 0.909 µM; bioavailability ([8]; oral dose 3 mg/kg): 86.3% |
| CC(C)C(O)c1nc(-c2cnc(N)c(C(F)(F)F)c2)cn1C12CC(C1)C2 (stereo not shown) [Compound 14, 1-(4-(6-amino-5-(trifluoromethyl)pyridin-3-yl)-1-(bicyclo[1.1.1]pentan-1-yl)-1H-imidazol-2-yl)-2-methylpropan-1-ol, reference compound] |  |  | 27 | 41 |  |  |  |  |  |  |  |  | Kd (human DLK; [11]): 300 pM |
| CC(C)[C@H](O)c1nc(-c2cnc(N)c(C(F)(F)F)c2)cn1C12CC(C1)C2 [Compound 14b, (S)-1-(4-(6-amino-5-(trifluoromethyl)pyridin-3-yl)-1-(bicyclo[1.1.1]pentan-1-yl)-1H-imidazol-2-yl)-2-methylpropan-1-ol, reference compound] |  | 16 | 23 | 26 |  |  | 76.7 | 0.7 | 3.72 | 3.62 | 3.38 | 61.2 | Kd (human DLK; [11]): 120 pM; half-life [3]: 154 min; half-life [4]: 7 min |
| CC(C)[C@H](O)c1nc(-c2cnc(N)c(OC(F)(F)F)c2)cn1C12CC(N3CCOCC3)(C1)C2 [Compound 15, (S)-1-(4-(6-amino-5-(trifluoromethoxy)pyridin-3-yl)-1-(3-morpholinobicyclo[1.1.1]pentan-1-yl)-1H-imidazol-2-yl)-2-methylpropan-1-ol, reference compound] |  | 1840 | 3000 | 80 | 0.24 | 0.16 |  |  |  |  |  |  | clearance [6, 12]: 12 mL/min/kg; half-life [6, 12]: 5.4 h; Vd [6, 12]: 4.1 L/kg; brain penetration, in words ([6]; mouse): reduced brain penetration; clearance in mice, comparison in words [6]: reduced clearances; half-life in mice, comparison in words [6]: longer half-lives; microsomal stability, comparison in words [7]: improved microsomal stability |
| Nc1ncc(-c2cn(C34CC(N5CCOCC5)(C3)C4)c([C@@H](O)C(F)(F)F)n2)cc1OC(F)(F)F [Compound 16, (R)-1-(4-(6-amino-5-(trifluoromethoxy)pyridin-3-yl)-1-(3-morpholinobicyclo[1.1.1]pentan-1-yl)-1H-imidazol-2-yl)-2,2,2-trifluoroethan-1-ol, reference compound] |  | 1040 | 1500 | 260 | 0.21 | 0.16 | 4.4 | 5.2 | 1.8 | 70.3 | 11.9 | 92.1 | Kd (human DLK; [11]): 360 pM; brain penetration, in words ([6]; mouse): reduced brain penetration; clearance in mice, comparison in words [6]: reduced clearances; half-life in mice, comparison in words [6]: longer half-lives; microsomal stability, comparison in words [7]: improved microsomal stability |
| Nc1ncc(-c2cn(C34CC(F)(C3)C4)c([C@H](O)C(F)(F)F)n2)cc1OC(F)(F)F [Example 1b, (S)-1-(4-(6-amino-5-(trifluoromethoxy)pyridin-3-yl)-1-(3-fluorobicyclo[1.1.1]pentan-1-yl)-1H-imidazol-2-yl)-2,2,2-trifluoroethanol] |  |  |  |  |  |  |  |  |  |  |  |  | Kd (human DLK): 120000 pM |
| Nc1ncc(-c2cn(C34CC(F)(C3)C4)c([C@@H](O)C(F)(F)F)n2)cc1C(F)(F)F [Example 2a, (R)-1-(4-(6-amino-5-(trifluoromethyl)pyridin-3-yl)-1-(3-fluorobicyclo[1.1.1]pentan-1-yl)-1H-imidazol-2-yl)-2,2,2-trifluoroethanol] | 4400 |  |  |  |  |  |  |  |  |  |  |  |  |
| Nc1ncc(-c2cn(C34CC(F)(C3)C4)c(C(O)C3CC3)n2)cc1OC(F)(F)F (stereo not shown) [Example 5, (4-(6-amino-5-(trifluoromethoxy)pyridin-3-yl)-1-(3-fluorobicyclo[1.1.1]pentan-1-yl)-1H-imidazol-2-yl)(cyclopropyl)methanol] | 5200 |  |  |  |  |  |  |  |  |  |  |  |  |
| Nc1ncc(-c2cn(C34CC(F)(C3)C4)c(C(O)C3CC3)n2)cc1C(F)(F)F (stereo not shown) [Example 6, (4-(6-amino-5-(trifluoromethyl)pyridin-3-yl)-1-(3-fluorobicyclo[1.1.1]pentan-1-yl)-1H-imidazol-2-yl)(cyclopropyl)methanol] | 7700 |  |  |  |  |  |  |  |  |  |  |  |  |
| Nc1ncc(-c2cn(C34CC(N5CCC(F)(F)CC5)(C3)C4)c(C(O)C3CC3)n2)cc1OC(F)(F)F (stereo not shown) [Example 11, (4-(6-amino-5-(trifluoromethoxy)pyridin-3-yl)-1-(3-(4,4-difluoropiperidin-1-yl)bicyclo[1.1.1]pentan-1-yl)-1H-imidazol-2-yl)(cyclopropyl)methanol] | 3100 |  |  |  |  |  |  |  |  |  |  |  |  |
| Nc1ncc(-c2cn(C34CC(N5CCC(F)(F)CC5)(C3)C4)c(C(O)C3CC3)n2)cc1C(F)(F)F (stereo not shown) [Example 12, (4-(6-amino-5-(trifluoromethyl)pyridin-3-yl)-1-(3-(4,4-difluoropiperidin-1-yl)bicyclo[1.1.1]pentan-1-yl)-1H-imidazol-2-yl)(cyclopropyl)methanol] | 2900 |  |  |  |  |  |  |  |  |  |  |  |  |
